One test has as its system mucosal microbiome. The test can be described thus: Colonic mucosal microbiome by MTPS, compared using Metastats (Example 2). The following applies: colonic mucosa, HE patients. It is filed as in vivo, human. How it is done: Interrogation of the Microbiome: Stool was collected and DNA extracted for microbiome analysis using published techniques (30). A subset underwent an un-sedated, unprepared flexible sigmoidoscopy during which a pinch biopsy of the recto-sigmoid mucosa was obtained, which was snap-frozen and stored at −80° C. till the analysis. We first use Length Heterogeneity PCR (LH-PCR) fingerprinting of the 16S rRNA to rapidly survey samples and standardize the community amplification. We then interrogated the microbial taxa associated with the gut fecal microbiome using Multitag Pyrosequencing (MTPS) (16). This technique allows for rapid sequencing of multiple samples at one time yielding thousands of sequence reads per sample.
Microbiome Community Fingerprinting: LH-PCR was done to standardize the community analysis as previously published. Briefly, total genomic DNA was extracted from tissue using Bio101 kit from MP Biomedicals Inc., Montreal, Quebec as per the manufacturer's instructions. About 10 ng of extracted DNA was amplified by PCR using a fluorescently labeled forward primer 27F (5′-(6FAM) AGAGTTTGATCCTGGCTCA G-3′, SEQ ID NO: 1) and unlabeled reverse primer 355R′ (5′-GCTGCCTCCCGTAGGAGT-3′, SEQ ID NO: 2). Both primers are universal primers for Bacteria (23). The LH-PCR products were diluted according to their intensity on agarose gel electrophoresis and mixed with ILS-600 size standards (Promega) and HiDi Formamide (Applied Biosystems, Foster City, Calif.). The diluted samples were then separated on a ABI 3130x1 fluorescent capillary sequencer (Applied Biosystems, Foster City, Calif.) and processed using the Genemapper™ software package (Applied Biosystems, Foster City, Calif.). Normalized peak areas were calculated using a custom PERL script and operational taxonomic units (OTUs) constituting less than 1% of the total community from each sample were eliminated from the analysis to remove the variable low abundance components within the communities.
MTPS: We employed the MTPS process to characterize the microbiome from the fecal and biopsy samples. Specifically, we have generated a set of 96 emulsion PCR fusion primers that contain the 454 emulsion PCR linkers on the 27F and 355R primers and a different 8 base “barcode” between the A adapter and 27F primer. Thus, each fecal sample was amplified with unique bar-coded forward 16S rRNA primers and then up to 96 samples were pooled and subjected to emulsion PCR and pyrosequenced using a GS-FLX pyrosequencer (Roche). Data from each pooled sample were “deconvoluted” by sorting the sequences into bins based on the barcodes using custom PERL scripts. Thus, we were able to normalize each sample by the total number of reads from each barcode. We have noted that ligating tagged primers to PCR amplicons distorts the abundances of the communities and thus it is critical to incorporate the tags during the original amplification step.
Microbiome Community Analysis: We identified the taxa present in each sample using the Bayesian analysis tool in Version 10 of the Ribosomal Database Project (RDP10). […] We chose this cutoff because of our a priori assumption that genera present in <1% of the community vary between individuals and have minimal contribution to the functionality of that community and 2,000 reads per sample will only reliably identify community components that are greater than 1% in abundance (16). […]

Test [1] concerns cirrhotic patients with HE. The test can be described thus: Comparison within the HE group: cognitive battery (PHES, block design, ICT) (Example 1). It is filed as in vivo, human. The following applies: HE patients on therapy, mean ± SD. How it is done:
All subjects underwent a mini-mental status exam and only those scoring above 25 were included in the full study (11). Participants then underwent a 24-hour dietary recall. Subsequently a recommended cognitive battery consisting of the following tests was administered to the cirrhotic patients; (a) Psychometric hepatic encephalopathy score (PHES), (b) block design test (BDT: subjects are required to replicate standardized designs with given blocks in a timed manner. The score is based on the designs correctly copied) and (c) Inhibitory control test. [This is a 15 minute computerized test. Subjects are instructed to respond to alternating presentations of X and Y on the screen (targets) while inhibiting response when X and Y are not alternating (lures)] (3, 41). The PHES consists of 5 tests: number connection test-A/B (NCT-A/B: subjects are asked to “join the dots” between numbers or numbers and alphabets in a timed fashion and the number of seconds required is the outcome), digit symbol (DST: subjects are required to copy corresponding figures from a given list within 2 minutes and the number correctly copied is the result), line drawing [LDTt (time) and LDTe (errors): subjects are required to trace a line between two parallel lines and balance between speed and accuracy. Time required and the number of times the subject's line strays beyond the marked lines (errors) are recorded] and serial dotting (SDT, subjects are asked to dot the center of a group of blank circles and the time required is the outcome)]. The PHES is a validated battery for cognitive dysfunction in cirrhosis and tests for psychomotor speed, visuo-motor coordination, attention and set-shifting(32). The BDT tests for visuo-motor coordination. The ICT is a validated computerized test of attention, psychomotor speed, response inhibition and working memory. A high score on BDT, DST and ICT targets and a low score on the rest of the tests indicates good cognitive performance. Cirrhotic patients also underwent serum collection for inflammatory cytokines testing for innate immunity [IL-1b, IL-6, TNF-α (tumor necrosis factor-alpha)], Th1 response ([IFN-γ (interferon-gamma) and IL-2], Th2 response (IL-4, IL-10, IL-13], Th17 response (IL-17 and IL-23), and endotoxin. These were analyzed in duplicate by multiplex bead-based sandwich ELISA and LAL assay for endotoxin using published techniques by AssayGate Inc, Ijamsville, Md. (4, 17, 45).
The cirrhosis group was divided into those with and without HE and were compared. Data from the significant variables between HE and non-HE groups were combined in a MANOVA model. Within HE patients, comparison was made between those on lactulose alone to those with lactulose and rifaximin. Microbiome abundance comparisons between groups were made at a family level using non-parametric tests. A comparison was performed between patients on and withdrawn off of lactulose therapy using the Wilcoxon matched-pair signed rank tests. All values are presented as mean±standard deviation unless mentioned otherwise.

`OC[C@H]1O[C@@H](O[C@@H]2[C@@H](CO)OC(O)(CO)[C@H]2O)[C@H](O)[C@@H](O)[C@H]1O` (mixture of isomers) [lactulose]: the Lachnospiraceae_Roseburia in the test with mucosal microbiome (p 0.005) is 1.9 % abundance. For the same compound, the “Incertae Sedis XIV_Blautia” value in the test on mucosal microbiome (p 0.008) is 4.2 % abundance. In addition, in the test on mucosal microbiome (p 0.03), the Propionibacteriaceae_Propionibacterium came out at 1.1 % abundance, the Rikenellaceae_Alistipes amounted to 1.8 % abundance and the Veillonellaceae_Other turned out to be 1.1 % abundance. For the same compound, in test [1] (high = good cognition), the ICT targets is given as 90.6 ± 8.64%, the block design was found to be 24.9 ± 24.8 score and the digit symbol was 36.5 ± 14.0 score. In test [1] (high = poor cognition), the ICT lures turned out to be 17.4 ± 10.8 number, the Line drawing errors came to 28.0 ± 18.6 score, the Line drawing time came to 106.9 ± 54.5 s and the “number connection-A” value stood at 55.2 ± 34.1 s. Also, in test [1] (high = poor cognition), the “number connection-B” value came out at 189 ± 127 s and the serial dotting turned out to be 88.7 ± 29.2 s.

The values are drawn from US20140179726A1, “GUT MICROFLORA AS BIOMARKERS FOR THE PROGNOSIS OF CIRRHOSIS AND BRAIN DYSFUNCTION” (priority 2011, published 2014).
